Test results taken from US10226045B2, “Azoline compounds” (priority 2014, dated 2019).

How the values were obtained:
Assay type in all cases: in vivo
[1] = test system: Green Peach Aphid (Myzus persicae); test: Green peach aphid, systemic test on artificial diet in microtiter plates; settings: 72 h, 2500 ppm, adult aphids on treated artificial diet, 3 days, in comparison with untreated controls, read-out: mortality
Description: B.2 Green Peach Aphid (Myzus persicae)
For evaluating control of green peach aphid (Myzus persicae) through systemic means the test unit consisted of 96-well-microtiter plates containing liquid artificial diet under an artificial mem brane.
The compounds were formulated using a solution containing 75% v/v water and 25% v/v DMSO. Different concentrations of formulated compounds were pipetted into the aphid diet, using a custom built pipetter, at two replications.
After application, 5-8 adult aphids were placed on the artificial membrane inside the microtiter plate wells. The aphids were then allowed to suck on the treated aphid diet and incubated at about 23±1° C. and about 50±5% relative humidity for 3 days. Aphid mortality and fecundity was then visually assessed.

[2] = test system: Brown Marmorated Stink Bug (Halyomorpha halys); test: Brown marmorated stink bug, sprayed peanuts and soybean seeds in cups; settings: 120 h, 100 ppm, adults on peanuts and soybean seeds, after 5 days, in comparison with untreated controls, read-out: mortality
Protocol: B.13 Brown Marmorated Stink Bug (Halyomorpha halys)
(§1) The active compound was dissolved at the desired concentration in a mixture of 1:1 (vol:vol) distilled water: acetone. Surfactant (Kinetic HV) was added at a rate of 0.01% (vol/vol). The test solution was prepared at the day of use.
Row peanuts and soybean seeds were placed into microwavable plastic cups and inoculated with five adult stage H. halys. Using a hand atomizer, approximately 1 ml solution is sprayed into each cup, insects and food present. A water source was provided (cotton wick with water). Each treatment is replicated 4-fold. Assay arenas are kept at about 25° C. Percent mortality was recorded after 5 days.

[3] = test system: Neotropical Brown Stink Bug (Euschistus heros); test: Neotropical brown stink bug, sprayed soybean pods in cups; settings: 120 h, 100 ppm, adults on soybean pods, after 5 days, in comparison with untreated controls, read-out: mortality
Protocol: B.12 Neotropical Brown Stink Bug (Euschistus heros)
as §1
Soybean pods were placed in microwavable plastic cups and inoculated with ten adult stage E. heros. Using a hand atomizer, approximately 1 ml solution is sprayed into each cup, insects and food present. A water source was provided (cotton wick with water). Each treatment was replicated 2-fold. Assay arenas were kept at about 25° C. Percent mortality was recorded after 5 days.

[4] = test system: Red Spider Mite (Tetranychus kanzawai); test: Red spider mite, sprayed cowpea beans; settings: 300 ppm, mites on sprayed cowpea beans, 72 hours after treatment, in comparison with untreated controls, read-out: mortality
Protocol: B.9 Red Spider Mite (Tetranychus kanzawai)
The active compound was dissolved at the desired concentration in a mixture of 1:1 (vol:vol) distilled water:acetone. Add surfactant (Kinetic HV) was added at a rate of 0.01% (vol/vol). The test solution was prepared at the day of use.
Potted cowpea beans of 4-5 days of age were cleaned with tap water and sprayed with 1-2 ml of the test solution using air driven hand atomizer. The treated plants were allowed to air dry and afterwards inoculated with 30 or more mites by clipping a cassava leaf section from rearing population. Treated plants were placed inside a holding room at about 25-27° C. and about 50-60% relative humidity. Percent mortality was assessed 72 hours after treatment.

O=C(NC1CS(=O)(=O)C1)c1ccc(C2=NCC(c3cc(Cl)c(F)c(Cl)c3)(C(F)(F)F)C2)c2c1CCC2 (stereo not shown) [Compound 2-3, 7-[3-(3,5-Dichloro-4-fluoro-phenyl)-3-(trifluoromethyl)-2,4-dihydropyrrol-5-yl]-N-(1,1-dioxothietan-3-yl)indane-4-carboxamide]
≥ 75%: mortality at 2500 ppm [1] | mortality at 100 ppm [2] | mortality at 100 ppm [3] | mortality at 300 ppm [4]
